31 compounds from patent US7022701B2, “Indolylalkylamine derivatives as 5-hydroxytryptamine-6 ligands” (Wyeth, priority 2001, dated 2006) can be followed below.

This assay concerns the target T1, human cloned 5-HT6 receptors (Homo sapiens, UniProt P50406).
T1 construct: expressed in transfected cells; host or cells: Hela cells
The experiment in a line: 5-HT6 binding affinity, [3H]-LSD displacement on membranes of Hela cells expressing the receptor. As to the method: The affinity of test compounds for the serotonin 5-HT6 receptor is evaluated in the following manner. Cultured Hela cells expressing human cloned 5-HT6 receptors are harvested and centrifuged at low speed (1,000×g) for 10.0 min to remove the culture media. The harvested cells are suspended in half volume of fresh physiological phosphate buffered saline solution and recentrifuged at the same speed. This operation is repeated. The collected cells are then homogenized in ten volumes of 50 mM Tris.HCl (pH 7.4) and 0.5 mM EDTA. The homogenate is centrifuged at 40,000×g for 30.0 min and the precipitate is collected. The obtained pellet is resuspended in 10 volumes of Tris.HCl buffer and recentrifuged at the same speed. The final pellet is suspended in a small volume of Tris.HCl buffer and the tissue protein content is determined in aliquots of 10–25 μl volumes. […] The volume of the suspended cell membranes is adjusted to give a tissue protein concentration of 1.0 mg/ml of suspension. The prepared membrane suspension (10 times concentrated) is aliquoted in 1.0 ml volumes and stored at −70° C. until used in subsequent binding experiments.
Binding experiments are performed in a 96 well microtiter plate format, in a total volume of 200 μl. […] The test compounds are added in 20.0 μl volume.
The bound complex caught on the filter disk is allowed to air dry and the radioactivity is measured in a Packard TopCount® equipped with six photomultiplier detectors, after the addition of 40.0 μl Microscint®-20 scintillant to each shallow well. The unifilter plate is heat-sealed and counted in a PackardTopCount® with a tritium efficiency of 31.0%.
Binding in the presence of varying concentrations of test compound is expressed as a percentage of specific binding in the absence of test compound. The results are plotted as log % bound versus log concentration of test compound.

The mark [1] stands for this setting: [3H]-LSD 3.0 nM, membranes of Hela cells expressing human cloned 5-HT6 receptors, 120 min at room temperature, read-out: 5-HT6 Binding Ki.

Where a name gives a salt, the structure may show the parent alone. Read-outs that look alike come from different tables or passages of the source.

T1 sequence (P50406 whole entry): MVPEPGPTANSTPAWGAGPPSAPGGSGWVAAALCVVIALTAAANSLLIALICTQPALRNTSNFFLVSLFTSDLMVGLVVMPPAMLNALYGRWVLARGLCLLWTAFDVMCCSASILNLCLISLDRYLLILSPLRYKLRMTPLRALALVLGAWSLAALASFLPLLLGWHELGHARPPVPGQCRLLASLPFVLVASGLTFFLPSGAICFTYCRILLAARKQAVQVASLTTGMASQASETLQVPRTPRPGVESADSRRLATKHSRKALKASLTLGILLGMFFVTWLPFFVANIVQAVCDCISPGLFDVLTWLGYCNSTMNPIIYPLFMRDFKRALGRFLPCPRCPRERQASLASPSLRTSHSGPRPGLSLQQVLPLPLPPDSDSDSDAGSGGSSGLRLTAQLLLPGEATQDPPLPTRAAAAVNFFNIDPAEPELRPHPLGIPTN

What is called Ki is a measure of affinity in units of concentration, obtained from inhibition or displacement. The compound `CNCCc1cn(S(=O)(=O)c2c(Cl)nc3sccn23)c2ccccc12` [Example 3, (2-[1-(6–Chloroimidazo[2,1-b]thiazole-5-sulfonyl)-1H-indol-3-yl]ethyl}methyl amine] returned an inhibitory constant (Ki) of 19 nM. On the same count and under the same terms, under `CN(C)CCc1cn(S(=O)(=O)c2c(Cl)nc3sccn23)c2ccccc12` [Example 4, {2-[1-(6-chloro-imidazo[2,1-b][1,3]thiazole-5-sulfonyl)-1H-indol-3-yl]ethyl}dimethylamine] stands 1 nM. Still for that read-out and setting: under `O=S(=O)(c1c(Cl)nc2sccn12)n1cc(CCNCc2ccccc2)c2ccccc21` [Example 5, benzyl-{2-[1-(6-chloro-imidazo[2,1-b][1,3]thiazole-5-sulfonyl)-1H-indol-3-yl]ethyl}amine] stands 4 nM; under `O=S(=O)(c1c(Cl)nc2sccn12)n1cc(CCN2CCCC2)c2ccccc21` [Example 6, 1-(6-chloro-imidazo[2,1-b][1,3]thiazole-5-sulfonyl)-3-(2-pyrrolidin-1-ylethyl)-1H-indole], 5 nM; under `CN1CCN(CCc2cn(S(=O)(=O)c3c(Cl)nc4sccn34)c3ccccc23)CC1` [Example 7, 1-(6-chloro-imidazo[2,1-b][1,3]thiazole-5-sulfonyl)-3-[2-(4-methylpiperazin-1-yl)ethyl]-1H-indole], 7 nM. Still for that read-out and setting: under `CN(CCc1cn(S(=O)(=O)c2c(Cl)nc3sccn23)c2ccccc12)Cc1ccccc1` [Example 9, benzyl-{2-[1-(6-chloro-imidazo[2,1-b][1,3]thiazole-5-sulfonyl)-1H-indol-3-yl]ethyl}methylamine] stands 5 nM; under `O=S(=O)(c1c(Cl)nc2sccn12)n1cc(CCNCCc2ccccc2)c2ccccc21` [Example 10, {2-[1-(6-chloro-imidazo[2,1-b][1,3]thiazole-5-sulfonyl)-1H-indol-3-yl]ethyl}phenethylamine], 41 nM; under `O=C(O)C1CCCN1CCc1cn(S(=O)(=O)c2c(Cl)nc3sccn23)c2ccccc12` (stereo not shown) [Example 11, 1-{2-[1-(6-chloro-imidazo[2,1-b][1,3]thiazole-5-sulfonyl)-1H-indol-3-yl]ethyl}pyrrolidine-2-carboxylic acid], 30 nM. Consider `CC(N)Cc1cn(S(=O)(=O)c2c(Cl)nc3sccn23)c2ccccc12` (stereo not shown) [Example 12, 2[1-(6–Chloroimidazo[2,1-b]thiazole-5-sulfonyl)-1H-indol-3-yl]-1-methylethylamine Hydrochloride], for which the Ki was 2 nM. On the same count and under the same terms, the figure for `C[C@H](N)Cc1cn(S(=O)(=O)c2c(Cl)nc3sccn23)c2ccccc12` [Example 15, (S)-2-[1-(6–Chloroimidazo[2,1-b]thiazole-5-sulfonyl)-1H-indol-3-yl]-1-methylethylamine Hydrochloride] is 6 nM; for `C[C@@H](N)Cc1cn(S(=O)(=O)c2c(Cl)nc3sccn23)c2ccccc12` [Example 16, ®-2-[1-(6 Chloroimidazo[2,1-b]thiazole-5-sulfonyl)-1H-indol-3-yl]-1-methylethylamine Hydrochloride] it is 2 nM; for `NCCc1cn(S(=O)(=O)c2c(Cl)nc3ccccn23)c2ccccc12` [Example 17, 2-[1-(2-chloro-imidazo[1,2-a]pyridine-3-sulfonyl)-1H-indol-3-yl]ethylamine] it is 14 nM.

Compound `NCCc1cn(S(=O)(=O)c2c(Cl)nc3sc(Cl)cn23)c2ccccc12` [Example 18, 2-[1-(2,6-dichloro-imidazo[2,1-b][1,3]thiazole-5-sulfonyl)-1H-indol-3-yl]ethylamine] gave a Ki of 8 nM. Same read-out and setting: the figure for `CNCCc1cn(S(=O)(=O)c2c(Cl)nc3ccccn23)c2ccccc12` [Example 20, {2-[1-(2-chloro-imidazo[1,2-a]pyridine-3-sulfonyl)-1H-indol-3-yl]ethyl}methylamine] is 11 nM; for `CNCCc1cn(S(=O)(=O)c2c(Cl)nc3sc(Cl)cn23)c2ccccc12` [Example 21, {2-[1-(2,6-dichloro-imidazo[2,1-b][1,3]thiazole-5-sulfonyl)-1H-indol-3-yl]ethyl)methylamine] it is 12 nM. In the case of `CN(C)CCc1cn(S(=O)(=O)c2c(Cl)nc3ccccn23)c2ccccc12` [Example 23, {2-[1-(2-chloro-imidazo[1,2-a]pyridine-3-sulfonyl)-1H-indol-3-yl]ethyl}dimethyamine], the Ki under setting [1] came out at 10 nM. `CN(C)CCc1cn(S(=O)(=O)c2c(Cl)nc3sc(Cl)cn23)c2ccccc12` [Example 24, {2-[1-(2,6-dichloro-imidazo[2,1-b][1,3]thiazole-5-sulfonyl)-1H-indol-3-yl]ethyl}dimethylamine] displayed a Ki of 10 nM. Same read-out and setting: under `COc1ccc2c(c1)c(CCN)cn2S(=O)(=O)c1c(Cl)nc2sccn12` [Example 30, 2-[1-(6-chloro-imidazo[2,1-b][1,3]thiazole-5-sulfonyl)-5-methoxy-1H-indol-3-yl]ethylamine] stands 11 nM.

For the compound `COc1ccc2c(CCN)cn(S(=O)(=O)c3c(Cl)nc4sccn34)c2c1` [Example 31, 2-[1-(6-chloro-imidazo[2,1-b][1,3]thiazole-5-sulfonyl)-6-methoxy-1H-indol-3-yl]ethylamine], the affinity corresponds to a Ki of 13 nM.

`NCCc1cn(S(=O)(=O)c2c(Cl)nc3sccn23)c2ccc(Br)cc12` [Example 32, 2-[5-bromo-1-(6-chloro-imidazo[2,1-b][1,3]thiazole-5-sulfonyl)-1H-indol-3-yl]ethylamine] registered a Ki of 74 nM.

`NCCc1cn(S(=O)(=O)c2c(Cl)nc3sccn23)c2ccc(OCc3ccccc3)cc12` [Example 33, 2-[5-benzyloxy-1-(6-chloro-imidazo[2,1-b][1,3]thiazole-5-sulfonyl)-1H-indol-3-yl]ethylamine] displayed a Ki of 169 nM.

`Cc1ccc2c(c1)c(CCN)cn2S(=O)(=O)c1c(Cl)nc2sccn12` [Example 34, 2-[1-(6-chloro-imidazo[2,1-b][1,3]thiazole-5-sulfonyl)-5-methyl-1H-indol-3-yl]ethylamine] displayed a Ki of 31 nM. Compound `Cc1ccc2c(CCN)cn(S(=O)(=O)c3c(Cl)nc4sccn34)c2c1` [Example 35, 2-[1-(6-chloro-imidazo[2,1-b][1,3]thiazole-5-sulfonyl)-6-methyl-1H-indol-3-yl]ethylamine] gave a Ki of 6 nM. The same measure, in the same setting: the figure for `Cc1cccc2c(CCN)cn(S(=O)(=O)c3c(Cl)nc4sccn34)c12` [Example 36, 2-[1-(6-chloro-imidazo[2,1-b][1,3]thiazole-5-sulfonyl)-7-methyl-1H-indol-3-yl]ethylamine] is 348 nM; for `NCCc1cn(S(=O)(=O)c2c(Cl)nc3sccn23)c2ccc(O)cc12` [Example 37, 3-(2-amino-ethyl)-1-(6-chloro-imidazo[2,1-b][1,3]thiazole-5-sulfonyl)-1H-indol-5-ol] it is 4 nM. `NCCc1cn(S(=O)(=O)c2c(Cl)nc3sccn23)c2ccc(F)cc12` [Example 38, 2-[1-(6-chloro-imidazo[2,1-b][1,3]thiazole-5-sulfonyl)-5-fluoro-1H-indol-3-yl]ethylamine] registered a Ki of 9 nM. In turn, `NCCc1cn(S(=O)(=O)c2c(Cl)nc3sccn23)c2cc(F)ccc12` [Example 39, 2-[1-(6-chloro-imidazo[2,1-b][1,3]thiazole-5-sulfonyl)-6-fluoro-1H-indol-3-yl]ethylamine] registered a Ki of 5 nM. `NCCc1cn(S(=O)(=O)c2cnc3sccn23)c2ccccc12` [Example 40, 2-{1-[(imidazo[2,1-b][1,3]thiazol-5-yl)sulfonyl]-1H-indol-3-yl}ethylamine] gave a Ki of 1.2 nM. With `NCCCc1cn(S(=O)(=O)c2c(Cl)nc3sccn23)c2ccc(F)cc12` [Example 45, 3-{1-[(6–Chloroimidazo[2,1-b][1,3]thiazol-5-yl)sulfonyl]-5-fluoro-1H-indol-3-yl}propan-1-amine], under setting [1], the Ki is 48 nM. As to “{2-[1-(2-chloro-benzo[d]imidazo[2,1-b][1,3]thiazole-3-sulfonyl)-1H-indol-3-yl]ethyl}dimethylamine [Example 25]”, under setting [1], the Ki came out at 37 nM. Regarding “{2-[1-(2-chloro-benzo[d]imidazo[2,1-b][1,3]thiazole-3-sulfonyl)-1H-indol-3-yl]ethyl}methylamine [Example 22]”, the inhibition constant Ki under setting [1] stood at 51 nM.
